≈ marks a conversion by molar mass, not a printed value. Where “and” joins values, the source holds several entries; their conditions need not be identical. Equal values may be shown once. Read-outs that look alike come from different tables or passages of the source. Where a SMILES comes first, the peptide text is derived from it.
Tests used:
[1] = molecular target: T1, glycogen synthase kinase (GSK-3β) (Homo sapiens, UniProt P49841); design: method as in PMID 24045329; conditions: read-out: IC50, inhibition of GSK-3β; cited from earlier work
[2] = molecular target: T1, glycogen synthase kinase (GSK-3β); test: Inhibition of glycogen synthase kinase (GSK-3β); type: biochemical; conditions: concentrations 0.1 μM to 50 μM analyzed twice in duplicates
Procedure: (§1) The phytopathogenic fungus Septoria tritici and the dermatophytic fungus Trichophyton rubrum as well as the cytotoxic effect on the human hepatocellular liver carcinoma cell line HepG2 were tested according to Jansen et al.. Inhibition of the enzymes glycogen synthase kinase (GSK-3β), acetylcholinesterase (AchE), phosphodiesterase (PDE-4B2), and protein tyrosine phosphatase (PTP1B) was determined according to Baki et al., Ohlendorf et al., Schulz et al., and Silber et al., respectively. The concentration of the compounds used in the initial bioassays was 100 μM (antibiotic tests), 50 μM (cytotoxic tests), and 10 μM (enzymatic tests).

[3] = system: Staphylococcus epidermidis (DSM 20044); test: Antibacterial growth inhibition, Staphylococcus epidermidis; type: cell-based; conditions: DSM20044, very weak inhibition, in the range of
Procedure: as §1, with “The antimicrobial activities of compounds 1 and 2 against the bacteria Bacillus subtilis as well as the human pathogenic yeast Candida albicans (DSM 1386) were determined according to Ohlendorf et al.. The bioassays with the clinically relevant bacterial strains Staphylococcus epidermidis (DSM 20044), methicillin-resistant Staphylococcus aureus (MRSA) (DSM 18827), and the causative agent of acne, Propionibacterium acnes (DSM 1897^T), were performed as described by Silber et al.. The phytopathogenic” for “The phytopathogenic”, “(enzymatic tests). […]” for “(enzymatic tests).”

[4] = system: methicillin-resistant Staphylococcus aureus (MRSA) (DSM 18827); test: Antibacterial growth inhibition, MRSA; type: cell-based; conditions: very weak inhibition, in the range of
[5] = molecular target: acetylcholinesterase (AchE) (Homo sapiens, UniProt P22303); test: Inhibition of acetylcholinesterase (AchE); type: biochemical
Procedure: as §1

Septoria tritici = test: Antifungal growth inhibition, Septoria tritici; type: cell-based; conditions: in the same concentration range (IC50 in the range of 100 μM)
Procedure: as §1, with “The antimicrobial activities of compounds 1 and 2 against the bacteria Bacillus subtilis as well as the human pathogenic yeast Candida albicans (DSM 1386) were determined according to Ohlendorf et al.. The bioassays with the clinically relevant bacterial strains Staphylococcus epidermidis (DSM 20044), methicillin-resistant Staphylococcus aureus (MRSA) (DSM 18827), and the causative agent of acne, Propionibacterium acnes (DSM 1897^T), were performed as described by Silber et al.. The phytopathogenic” for “The phytopathogenic”, “(enzymatic tests). […]” for “(enzymatic tests).”

Trichophyton rubrum = test: Antifungal growth inhibition, Trichophyton rubrum; type: cell-based; conditions: in the same concentration range (IC50 in the range of 100 μM)
Procedure: as §1, with “The antimicrobial activities of compounds 1 and 2 against the bacteria Bacillus subtilis as well as the human pathogenic yeast Candida albicans (DSM 1386) were determined according to Ohlendorf et al.. The bioassays with the clinically relevant bacterial strains Staphylococcus epidermidis (DSM 20044), methicillin-resistant Staphylococcus aureus (MRSA) (DSM 18827), and the causative agent of acne, Propionibacterium acnes (DSM 1897^T), were performed as described by Silber et al.. The phytopathogenic” for “The phytopathogenic”, “(enzymatic tests). […]” for “(enzymatic tests).”

T1 sequence (P49841 whole entry): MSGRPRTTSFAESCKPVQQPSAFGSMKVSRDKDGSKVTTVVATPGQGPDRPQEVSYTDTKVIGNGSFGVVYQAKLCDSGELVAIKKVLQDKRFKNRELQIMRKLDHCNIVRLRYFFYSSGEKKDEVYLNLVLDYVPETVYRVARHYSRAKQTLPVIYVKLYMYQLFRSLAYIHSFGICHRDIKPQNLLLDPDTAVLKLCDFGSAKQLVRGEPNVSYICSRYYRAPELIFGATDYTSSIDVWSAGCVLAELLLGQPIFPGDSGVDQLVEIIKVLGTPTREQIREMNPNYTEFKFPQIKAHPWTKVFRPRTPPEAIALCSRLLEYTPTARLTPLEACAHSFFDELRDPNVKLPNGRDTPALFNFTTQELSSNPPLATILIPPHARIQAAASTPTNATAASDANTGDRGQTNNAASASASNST
acetylcholinesterase (AchE), sequence (P22303 32-614): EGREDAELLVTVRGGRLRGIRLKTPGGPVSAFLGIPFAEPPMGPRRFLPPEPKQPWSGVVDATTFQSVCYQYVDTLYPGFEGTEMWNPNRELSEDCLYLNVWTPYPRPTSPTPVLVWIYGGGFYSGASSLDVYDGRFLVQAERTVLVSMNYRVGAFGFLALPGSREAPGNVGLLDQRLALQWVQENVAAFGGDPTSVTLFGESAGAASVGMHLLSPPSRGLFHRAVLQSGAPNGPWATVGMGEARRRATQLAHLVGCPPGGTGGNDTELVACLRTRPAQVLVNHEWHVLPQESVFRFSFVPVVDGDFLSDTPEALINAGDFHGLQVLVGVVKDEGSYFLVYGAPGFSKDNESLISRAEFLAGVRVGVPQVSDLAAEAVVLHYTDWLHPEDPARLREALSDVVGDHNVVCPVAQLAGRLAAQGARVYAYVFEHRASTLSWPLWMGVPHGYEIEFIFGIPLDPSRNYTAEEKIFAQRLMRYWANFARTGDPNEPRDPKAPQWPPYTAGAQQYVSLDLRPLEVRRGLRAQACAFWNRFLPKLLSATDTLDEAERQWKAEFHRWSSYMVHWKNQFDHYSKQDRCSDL

## bhimamycin H
[1]
  IC50: 18 µM

## O=C1c2c[nH]cc2C(=O)c2c(O)cc(O)cc21 [Compound 1, biscogniauxone]
[2]
  IC50: 8.04 µM and 8 µM
[3]
  IC50: ~100 µM
[4]
  IC50: ~100 µM

## CC(C)C[C@@H]1NC(=O)[C@H](CC(C)C)NC(=O)[C@H](C(C)C)NC(=O)[C@H](CC(C)C)NC(=O)[C@H](Cc2ccccc2)NC1=O [Compound 3, cyclo-(L-Phe-L-Leu-L-Val-L-Leu-L-Leu)] (cyclo(FLVLL))
[5]
  minimal inhibition concentration (MIC), inhibitory effect on AchE: 5.87 µM (≈ 3.44 µg/mL)

## COc1cc(O)c2c(c1C)C[C@H](C)OC2=O [Compound 2, 6-methoxy-5-methyl mellein]
Septoria tritici
  inhibition of Septoria tritici: weakly inhibited
Trichophyton rubrum
  inhibition of Trichophyton rubrum: weakly inhibited
